From EPA's ToxValDB 9.5 (doi:10.2903/j.efsa.2010.1645)
In brackets after ≈: the same amount, converted by molar mass.

Assays:
Apis mellifera = conditions: acute, duration: 48 hours, mortality
Bibionidae = conditions: chronic/long-term; duration: 28 days; development
Daphnia magna = conditions: chronic/long-term; duration: 21 days; reproduction
Folsomia candida = conditions: chronic/long-term; duration: 28 days; reproduction
Glycine sp. = conditions: chronic/long-term; seedling emergence
Oncorhynchus mykiss = conditions: acute; duration: 96 hours; mortality
Pimephales promelas = conditions: chronic/long-term; duration: 35 days; growth
Typhlodromus pyri = assay: LR50; higher = less toxic; conditions: acute; duration: 7 days; mortality

SMILES: CC(C)[C@@H](Nc1ccc(C(F)(F)F)cc1Cl)C(=O)OC(C#N)c1cccc(Oc2ccccc2)c1 (stereo not given in full) [tau-Fluvalinate]
- LD50 (Apis mellifera; dermal): 12 µg/piece
- LD50 (Apis mellifera; oral, unspecified): 12.6 µg/piece
- NOEC (Bibionidae): 0.00024 mg/L
- NOEC (Daphnia magna): 2.1e-05 mg/L
- NOEC (Folsomia candida): 9.6 mg/kg
- NOEC (Glycine sp.): < 6.25 g/ha
- LC50 (Oncorhynchus mykiss): 7.94 ng/mL (≈ 0.0158 µM)
- NOEC (Pimephales promelas): 6.4e-05 mg/L
- NOAEL (Rattus norvegicus; chronic, duration: 2 years, body weight): 0.5 mg/kg-day
- NOAEL (Rattus norvegicus; developmental, development): 5 mg/kg-day
- NOAEL (Rattus norvegicus; short-term, duration: 28 days, clinical signs): 6 mg/kg-day
- NOAEL (Rattus norvegicus; subchronic, duration: 90 days, oral, diet, body weight): 1 mg/kg-day
- LC50 (Tagia sp.; acute, duration: 14 days, mortality): > 1000 mg/kg
- NOEC (Tagia sp.; chronic/long-term, duration: 56 days, reproduction): > 2.88 mg/kg
- LR50 (Typhlodromus pyri): 0.049 g/ha
